Source: the NIST ThermoML archive (doi:10.1021/acs.jced.7b00866)

Conditions: Liquid, Capillary tube (Ostwald / Ubbelohde) method

CCCCCCCCCCCC [dodecane]
Conditions	viscosity [mPa·s]
493.4 K, 6040 kPa	0.216
493.4 K, 8010 kPa	0.2247
502.7 K, 7960 kPa	0.2075
503.2 K, 10010 kPa	0.2197
503.4 K, 6080 kPa	0.2005
513 K, 8040 kPa	0.1945
513 K, 10000 kPa	0.207
514.2 K, 6050 kPa	0.186
523 K, 8000 kPa	0.1822
523.7 K, 5970 kPa	0.1737
523.7 K, 10040 kPa	0.1949
533.3 K, 8040 kPa	0.1736
533.5 K, 6040 kPa	0.1638
533.5 K, 10070 kPa	0.1825
542.9 K, 6010 kPa	0.1526
542.9 K, 8060 kPa	0.1603
542.9 K, 9950 kPa	0.1682
552.9 K, 6070 kPa	0.1419
552.9 K, 10020 kPa	0.158
553.2 K, 8010 kPa	0.1506
563 K, 6050 kPa	0.1337
563 K, 8020 kPa	0.1414
563 K, 10020 kPa	0.1509
573 K, 6010 kPa	0.124
573 K, 8020 kPa	0.1347
573 K, 10040 kPa	0.1437
582.8 K, 6000 kPa	0.1159
582.8 K, 10010 kPa	0.132
582.9 K, 7960 kPa	0.1265
592.9 K, 8070 kPa	0.12
593 K, 6020 kPa	0.1104
593 K, 10000 kPa	0.1263
602.9 K, 8020 kPa	0.1128
603.1 K, 6010 kPa	0.1048
603.1 K, 10010 kPa	0.1186
612.9 K, 8020 kPa	0.1058
613.1 K, 6040 kPa	0.0969
613.1 K, 10010 kPa	0.1116
623 K, 7990 kPa	0.1003
623.2 K, 6050 kPa	0.0908
623.2 K, 10050 kPa	0.1056
632.8 K, 8040 kPa	0.0933
633.5 K, 6020 kPa	0.0848
633.5 K, 10010 kPa	0.0992
643 K, 8050 kPa	0.0878
643.4 K, 6020 kPa	0.0789
643.4 K, 10010 kPa	0.0943
652.9 K, 8020 kPa	0.0824
653.4 K, 6070 kPa	0.0733
653.4 K, 10040 kPa	0.087
663.1 K, 8010 kPa	0.0775
663.2 K, 6010 kPa	0.0682
663.2 K, 10050 kPa	0.0823
672.9 K, 8010 kPa	0.0727
673.5 K, 6040 kPa	0.0635
673.5 K, 9980 kPa	0.0785
683.2 K, 8050 kPa	0.0685
683.2 K, 10040 kPa	0.0746
683.3 K, 6010 kPa	0.059
693.2 K, 6010 kPa	0.0548
693.2 K, 8020 kPa	0.0643
693.2 K, 10010 kPa	0.0712
